Assay results published in PubChem BioAssay (NCI).
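Cultured in 96-well plates, cells were exposed to test compound for 48 hours across five concentrations. TGI marks complete inhibition of growth.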 *1 amine or outer side, *2 acyl side, *3 side chain or, on linkers, in order; H or OH if unused. Where a SMILES comes first, the peptide text is derived from it. Bridges are numbered along the chain shown (N, C = ends). [ ]: non-standard residue; d: D form. The star is where a group is joined. X34 = O=C(C(CCCCNO[*:3])N[*:1])[*:2]; Fmoc = O=C(OCC1c2ccccc2-c2ccccc21)*

Legend:
Test in all cases: NCI tumour cell line growth inhibition, 48 h
A549 NSCLC = system: A549 NSCLC
KM12 colon = system: KM12 colon
UACC-257 melanoma = system: UACC-257 melanoma
OVCAR-8 ovarian = system: OVCAR-8 ovarian
BT-549 breast = system: BT-549 breast
EKVX NSCLC = system: EKVX NSCLC
HS 578T breast = system: HS 578T breast
DU-145 prostate = system: DU-145 prostate
T-47D breast = system: T-47D breast
HOP-92 NSCLC = system: HOP-92 NSCLC
SR leukemia = system: SR leukemia
SF-539 CNS = system: SF-539 CNS
NCI-H460 lung = system: NCI-H460 lung
HL-60(TB) leukemia = system: HL-60(TB) leukemia
RXF 393 renal = system: RXF 393 renal
U251 CNS = system: U251 CNS
ACHN renal = system: ACHN renal
NCI/ADR-RES ovarian = system: NCI/ADR-RES ovarian
HCT-116 colon = system: HCT-116 colon
MCF7 breast = system: MCF7 breast
MOLT-4 leukemia = system: MOLT-4 leukemia
OVCAR-4 ovarian = system: OVCAR-4 ovarian
K-562 leukemia = system: K-562 leukemia
NCI-H226 lung = system: NCI-H226 lung
MDA-MB-435 = system: MDA-MB-435
TK-10 renal = system: TK-10 renal
NCI-H522 lung = system: NCI-H522 lung
HT29 colon = system: HT29 colon
SNB-75 CNS = system: SNB-75 CNS
OVCAR-5 ovarian = system: OVCAR-5 ovarian
NCI-H23 lung = system: NCI-H23 lung
SNB-19 CNS = system: SNB-19 CNS
MALME-3M melanoma = system: MALME-3M melanoma
MDA-MB-231 breast = system: MDA-MB-231 breast
RPMI-8226 leukemia = system: RPMI-8226 leukemia
PC-3 prostate = system: PC-3 prostate
HCC-2998 colon = system: HCC-2998 colon
LOX IMVI melanoma = system: LOX IMVI melanoma
SK-MEL-2 melanoma = system: SK-MEL-2 melanoma
SK-MEL-5 melanoma = system: SK-MEL-5 melanoma
SK-OV-3 ovarian = system: SK-OV-3 ovarian
UO-31 renal = system: UO-31 renal
CCRF-CEM leukemia = system: CCRF-CEM leukemia
COLO 205 colon = system: COLO 205 colon
786-0 renal = system: 786-0 renal
HCT-15 colon = system: HCT-15 colon
SW-620 colon = system: SW-620 colon
SN12C renal = system: SN12C renal
UACC-62 melanoma = system: UACC-62 melanoma
OVCAR-3 ovarian = system: OVCAR-3 ovarian
SF-268 CNS = system: SF-268 CNS
SK-MEL-28 melanoma = system: SK-MEL-28 melanoma
M14 melanoma = system: M14 melanoma
SF-295 CNS = system: SF-295 CNS
HOP-62 NSCLC = system: HOP-62 NSCLC
IGROV1 ovarian = system: IGROV1 ovarian

Measured: TGI

NC(=O)CNC(=O)C1CCCN1C(=O)C1CCCCNOC(=O)CCC(NC(=O)OCC2c3ccccc3-c3ccccc32)C(=O)NC(Cc2c[nH]c3ccccc23)C(=O)N1 (stereo unspecified) (Fmoc-EW[X34]PG-NH2; ester 1-3; configuration not given here)
> 100 µM: all assays above
